Read-outs that look alike come from different tables or passages of the source.
Columns and labels:
[1] = biological target: Human recombinant PDE4 (Genbank accession no NM—006203) (Homo sapiens, UniProt Q08499); assay: PDE4 Assay (SPA, cleavage of cAMP); assay type: biochemical
Description: Human recombinant PDE4 (Genbank accession no NM_006203) was incubated for 1 hour, with the test compound at concentrations up to 10 μM, with cAMP (1×10^-5M), and with a low amount (0.021 MBq) of radioactively labelled cAMP. At the end of the incubation, the cleavage of the substrate was evaluated by the binding of the AMP product to SPA beads, which generate […] when bound to the radioactive tracer. The AMP product inhibited the binding of the radioactive tracer to the beads, and the luminescent signal was competed. The results were calculated as the molar concentrations resulting in 50% inhibition of the substrate cleavage compared to controls samples, and are expressed as IC50 (M).

[2] = tested on: TNF-α release from human peripheral blood mononuclear cells (PBMC); assay: TNF-α Release in LPS stimulated PBMC; assay type: cell-based; settings: 30 minutes pre-incubation, stimulated 18 hours with lipopolysaccharide, TNF-α in supernatant by enzyme immunoassay
Description: Human peripheral blood mononuclear cells (PBMC) were isolated from buffy coats. The blood is mixed with saline at a ratio of 1:1, and the PBMC were isolated using Lymphoprep Tubes™ (Nycomed, Norway). The PBMC were suspended in RPMI1640 with 2% foetal calf serum (FCS), pen/strep and 2 mM L-glutamine at a concentration of […]. The cells were pre-incubated for 30 minutes with the test compounds in 96 well tissue culture plates and stimulated for 18 hours with lipopolysaccharide […] (Sigma). The level of TNF-α was measured in the culture supernatant by enzyme immunoassays using primary and secondary biotinylated antibodies from R&D systems. Results are expressed as IC50 values calculated from inhibition curves using as positive controls the secretion in LPS stimulated wells and as negative controls the secretion in unstimulated cells.

[3] = human recombinant PDE4, 1 hour incubation, cAMP 1×10^-5M, test compound up to 10 μM, read-out: IC50 (PDE4)

Sequence of Human recombinant PDE4 (Genbank accession no NM—006203) (Q08499 1-673 isoform Q08499-2): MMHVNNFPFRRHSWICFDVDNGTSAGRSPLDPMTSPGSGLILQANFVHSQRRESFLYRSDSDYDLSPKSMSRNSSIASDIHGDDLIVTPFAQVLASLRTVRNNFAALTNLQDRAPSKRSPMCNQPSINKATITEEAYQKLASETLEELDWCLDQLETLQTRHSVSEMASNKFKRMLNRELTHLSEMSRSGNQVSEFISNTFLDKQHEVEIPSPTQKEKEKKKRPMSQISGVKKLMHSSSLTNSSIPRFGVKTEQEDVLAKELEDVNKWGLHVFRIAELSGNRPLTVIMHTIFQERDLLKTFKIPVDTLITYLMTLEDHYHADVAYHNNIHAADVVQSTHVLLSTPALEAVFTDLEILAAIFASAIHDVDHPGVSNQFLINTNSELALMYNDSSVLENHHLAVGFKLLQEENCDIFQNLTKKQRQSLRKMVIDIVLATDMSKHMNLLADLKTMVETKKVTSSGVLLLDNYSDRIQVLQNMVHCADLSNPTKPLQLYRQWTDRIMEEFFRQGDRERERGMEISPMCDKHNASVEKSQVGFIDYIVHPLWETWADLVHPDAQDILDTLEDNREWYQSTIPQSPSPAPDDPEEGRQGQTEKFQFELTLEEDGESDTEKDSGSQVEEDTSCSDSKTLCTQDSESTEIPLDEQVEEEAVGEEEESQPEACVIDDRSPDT

Compound	IC50 [1, 3]	IC50 [2]	IC50 [1]
COc1ccc(C(=O)Cc2c(Cl)cncc2Cl)c2c1OC1(CCOCC1)O2 [Compound 101, 2-(3,5-Dichloropyridine-4-yl)-1-(7-methoxy-2′,3′,5′,6′-tetrahydro-spiro[1,3-benzodioxole-2,4′-(4H)-pyran]-4-yl)ethanone]	26 nM	28 nM	–
COc1ccc(C(=O)Nc2c(Cl)cncc2Cl)c2c1OC1(CCOCC1)O2 [Compound 102, N-(3,5-Dichloropyridine-4-yl)-7-methoxy-2′,3′,5′,6′-tetrahydro-spiro[1,3-benzodioxole-2,4′-(4H)-pyran]-4-carboxamide]	41 nM	88 nM	–
COc1ccc(C(=O)Cc2c(Cl)c[n+]([O-])cc2Cl)c2c1OC1(CCOCC1)O2 [Compound 103, 2-(3,5-Dichloro-1-oxido-pyridine-4-yl)-1-(7-methoxy-2′,5′,6′-tetrahydro-spiro[1,3-benzodioxole-2,4′-(4H)-pyran]-4-yl)ethanone]	26 nM	23 nM	–
COc1ccc(C(=O)Cc2c(Cl)cncc2Cl)c2c1OC1(CCSC1)O2 (centres unmarked) [Compound 104, 2-(3,5-Dichloropyridine-4-yl)-1-(7-methoxy-4′,5′-dihydro-spiro[1,3-benzo-dioxole-2,3′-(2H)-thiophen]-4-yl)ethanone]	10 nM	44 nM	–
COc1ccc(C(=O)Cc2c(Cl)cncc2Cl)c2c1OC1(CCNCC1)O2 [Compound 105, 2-(3,5-Dichloropyridine-4-yl)-1-(7-methoxy-spiro[1,3-benzodioxole-2,4′-piperidine]-4-yl)ethanone]	–	800 nM	310 nM
COC(=O)N1CCC2(CC1)Oc1c(OC)ccc(C(=O)Cc3c(Cl)cncc3Cl)c1O2 [Compound 106, 2-(3,5-Dichloropyridine-4-yl)-1-(7-methoxy-1′-[methoxycarbonyl]-spiro[1,3-benzodioxole-2,4′-piperidine]-4-yl)ethanone]	–	158 nM	127 nM
COc1ccc(C(=O)Cc2c(Cl)cncc2Cl)c2c1OC1(CCN(S(C)(=O)=O)CC1)O2 [Compound 107, 2-(3,5-Dichloropyridine-4-yl)-1-(7-methoxy-1′-[methylsulfonyl]-spiro[1,3-benzodioxole-2,4′-piperidine]-4-yl)ethanone]	590 nM	910 nM	–
COc1ccc(C(=O)Cc2c(Cl)cncc2Cl)c2c1OC1(CCN(C(C)=O)CC1)O2 [Compound 108, 2-(3,5-Dichloropyridine-4-yl)-1-(7-methoxy-1′-acetyl-spiro[1,3-benzodioxole-2,4′-piperidine]-4-yl)ethanone]	–	167 nM	220 nM
COc1ccc(C(=O)Cc2c(Cl)cncc2Cl)c2c1OC1(CCSCC1)O2 [Compound 110, 2-(3,5-Dichloropyridine-4-yl)-1-(7-methoxy-2′,3′,5′,6′-tetrahydro-spiro[1,3-benzodioxole-2,4′-(4H)-thiopyran]-4-yl)ethanone]	11 nM	17 nM	–
COc1ccc(C(=O)Cc2c(Cl)cncc2Cl)c2c1OC1(CC[S+]([O-])CC1)O2 (centres unmarked) [Compound 111, 2-(3,5-Dichloropyridine-4-yl)-1-(7-methoxy-2′,3′,5′,6′-tetrahydro-spiro[1,3-benzodioxole-2,4′-(4H)-thiopyran 1′-oxide]-4-yl)ethanone]	18 nM	19 nM	–
COc1ccc(C(=O)Cc2c(Cl)cncc2Cl)c2c1OC1(CCS(=O)(=O)CC1)O2 [Compound 112, 2-(3,5-Dichloropyridine-4-yl)-1-(7-methoxy-2′,3′,5′,6′-tetrahydro-spiro[1,3-benzodioxole-2,4′-(4H)-thiopyran-1,1′-dioxide]-4-yl)ethanone]	29 nM	34 nM	–
COc1ccc(C(=O)Cc2c(Cl)c[n+]([O-])cc2Cl)c2c1OC1(CCS(=O)(=O)CC1)O2 [Compound 113, 2-(3,5-Dichloro-1-oxido-pyridine-4-yl)-1-(7-methoxy-2′,3′,5′,6′-tetrahydro-spiro[1,3-benzodioxole-2,4′-(4H)-thiopyran-1′,1′-dioxide]-4-yl)ethanone]	53 nM	82 nM	–
COc1ccc(C(=O)Cc2ccncc2Br)c2c1OC1(CCSCC1)O2 [Compound 114, 2-(3-bromopyridine-4-yl)-1-(7-methoxy-2′,3′,5′,6′-tetrahydro-spiro[1,3-benzodioxole-2,4′-(4H)-thiopyran]-4-yl)ethanone]	45 nM	95 nM	–
COc1ccc(C(=O)Cc2nccnc2Br)c2c1OC1(CCSCC1)O2 [Compound 115]	1410 nM	471 nM	–
COc1ccc(C(=O)Cc2cnccn2)c2c1OC1(CCSCC1)O2 [Compound 116, 2-(-pyrazin-2-yl)-1-(7-methoxy-2′,3′,5′,6′-tetrahydro-spiro[1,3-benzodioxole-2,4′-(4H)-thiopyran]-4-yl)ethanone]	1290 nM	2940 nM	–
COc1ccc(C(=O)Cc2ccncc2)c2c1OC1(CCSCC1)O2 [Compound 117, 2-(-pyridin-4-yl-)-1-(7-methoxy-2′,3′,5′,6′-tetrahydro-spiro[1,3-benzo-dioxole-2,4′-(4H)-thiopyran]-4-yl)ethanone]	207 nM	286 nM	–
COc1ccc(C(=O)Cc2ccnc3ccccc23)c2c1OC1(CCSCC1)O2 [Compound 118, 2-(quinolin-4-yl-)-1-(7-methoxy-2′,3′,5′,6′-tetrahydro-spiro[1,3-benzo-dioxole-2,4′-(4H)-thiopyran]-4-yl)ethanone]	1800 nM	5520 nM	–
COc1ccc(C(=O)Cc2c(Cl)cccc2Cl)c2c1OC1(CCSCC1)O2 [Compound 119, 2-(2,6-Dichloro-phenyl)-1-(7-methoxy-2′,3′,5′,6′-tetrahydro-spiro[1,3-benzo-dioxole-2,4′-(4H)-thiopyran]-4-yl)ethanone]	71 nM	508 nM	–
COc1ccc(C(=O)Cc2ccccc2Cl)c2c1OC1(CCSCC1)O2 [Compound 120, 2-(2-chloro-phenyl)-1-(7-methoxy-2′,3′,5′,6′-tetrahydro-spiro[1,3-benzo-dioxole-2,4′-(4H)-thiopyran]-4-yl)ethanone]	310 nM	1250 nM	–
COc1ccc(C(=O)Cc2c(Cl)cncc2Cl)c2c1OCC1(COC1)CO2 [Compound 121, 2-(3,5-Dichloropyridin-4-yl)-1-{9-methoxy-spiro[2H-1,5-benzodioxepin-3(4H),3′-oxetane]-6-yl}ethanone]	52 nM	64 nM	–
COc1ccc(C(=O)Cc2c(Cl)c[n+]([O-])cc2Cl)c2c1OCC1(COC1)CO2 [Compound 122, 2-(3,5-Dichloro-1-oxido-pyridin-4-yl)-1-{9-methoxy-spiro[2H-1,5-benzodioxepin-3(4H),3′-oxetane]-6-yl}ethanone]	50 nM	20 nM	–
COc1ccc(C(=O)Cc2c(Cl)cncc2Cl)c2c1OCC1(CO2)CSC1 [Compound 123, 2-(3,5-Dichloropyridin-4-yl)-1-{9-methoxy-spiro[2H-1,5-benzodioxepin-3(4H),3′-thietane]-6-yl}ethanone]	17 nM	35 nM	–
COc1ccc(C(=O)Cc2c(Cl)cncc2Cl)c2c1OCC1(CO2)CS(=O)(=O)C1 [Compound 124, 2-(3,5-Dichloropyridin-4-yl)-1-{9-methoxy-spiro[2H-1,5-benzodioxepin-3(4H),3′-thietane-1′,1′-dioxide]-6-yl}ethanone]	104 nM	135 nM	–
COc1ccc(C(=O)Cc2c(Cl)c[n+]([O-])cc2Cl)c2c1OCC1(CO2)CS(=O)(=O)C1 [Compound 125, 2-(3,5-Dichloropyridin-1-oxido-4-yl)-1-{9-methoxy-spiro[2H-1,5-benzodioxepin-3(4H),3′-thietane-1′,1′-dioxide]-6-yl}ethanone]	200 nM	135 nM	–
COc1ccc(C(=O)Cc2c(Cl)cncc2Cl)c2c1OCC1(CO2)OCCO1 [Compound 126, 2-(3,5-Dichloropyridin-4-yl)-1-{9-methoxy-spiro[2H-1,5-benzodioxepin-3(4H),2′-(1,3-dioxolane)]-6-yl}ethanone]	67 nM	111 nM	–
COc1ccc(C(=O)Cc2c(Cl)cncc2Cl)c2c1OCC1(CCOCC1)CO2 [Compound 127, 2-(3,5-Dichloropyridin-4-yl)-1-{9-methoxy-spiro[2H-1,5-benzodioxepin-3(4H),4′-tetrahydropyran]-6-yl}ethanone]	22 nM	27 nM	–
COc1ccc(C(=O)Cc2c(Cl)c[n+]([O-])cc2Cl)c2c1OCC1(CCOCC1)CO2 [Compound 128, 2-(3,5-Dichloro-1-oxido-pyridin-4-yl)-1-{9-methoxy-spiro[2H-1,5-benzodioxepin-3(4H),4′-tetrahydropyran]-6-yl}ethanone]	11 nM	9 nM	–
COc1ccc(C(=O)Cc2c(Cl)cncc2Cl)c2c1OCC1(COCOC1)CO2 [Compound 130, 2-(3,5-Dichloropyridin-4-yl)-1-{9-methoxy-spiro[2H-1,5-benzodioxepin-3(4H),5′-[1,3]dioxane]-6-yl}ethanone]	40 nM	50 nM	–
